Patent US9943569B2, “Method for preventing or reducing postoperative pulmonary complications” (OSAKA UNIVERSITY, priority 2015, dated 2018)

How the values were obtained:
Type in all cases: in vivo, human
[1] = Plasma ghrelin concentration (enzyme immunoassay), randomized placebo-controlled phase II study
Description: Forty patients with primary esophageal cancer who underwent esophagectomy were selected to participate in a randomized, placebo-controlled phase II study. The patients were selected based on the following eligibility criteria: (1) thoracic esophageal cancer treated by performing radical esophagectomy with gastric tube reconstruction; (2) age 20 to 75 years; (3) adequate functioning of major organs; (4) no other active malignancies; and (5) provision of written informed consent. The following exclusions criteria were used: (1) preoperative diagnosis of esophageal cancer invasion to the aorta or trachea and other organs; (2) patients with multiple cancer; (3) severe respiratory problems, such as emphysema; (4) patients with prior ischemic heart disease; (5) liver cirrhosis or active hepatitis; (6) renal failure requiring dialysis treatment; (7) poorly controlled diabetes mellitus or disease requiring insulin treatment; (8) consecutive use of steroids; and (9) mental disorder. The patients were randomly divided into a ghrelin group and a placebo group at a 1:1 ratio. The approach for thoracic manipulation (i.e., open or thoracoscopic surgery) was used as the only stratification factor. Group allocation was performed before the initiation of surgery. The study was performed in a double-blind manner, and an independent researcher assessed outcomes.
(§1) The primary endpoint of this study was SIRS duration. The secondary endpoints were postoperative complications, serum C-reactive protein (CRP) and IL-6 levels, time required to attain a positive nitrogen balance, and changes in body weight and body composition. Postoperative complications were defined as adverse events caused by surgery. Patients received an intravenous continuous infusion of ghrelin (0.5 μg/kg/h) or placebo (pure saline) for 5 days postoperatively. Ghrelin was diluted to a final volume of 48 mL with saline, and the solution was administered at a rate of 2 mL/h by using an infusion pump through a central venous catheter inserted into the right subclavian vein. The same amount of ghrelin was administered via intravenous infusion during the 5 days of treatment; the dose was calculated on the basis of body weight on the day before surgery. Patients in the placebo group received the corresponding infusion containing pure saline using same procedure.
(§2) Blood sampling was performed at the following 7 time points: before surgery; 2 hours after initiation of surgery (during thoracotomy); 4 hours after initiation of surgery (during laparotomy); and on PODs 1, 3, 7, and 10. Complete blood count was performed every day for at least 10 PODs. If the leukocyte count was not within the normal range on POD10, complete blood counts were performed daily until it was within the normal range for 3 consecutive days. SIRS was diagnosed according to the criteria proposed by the American College of Chest Physicians/Society of Critical Care Medicine Consensus Conference^32 and when 2 or more of the following criteria were present: (1) body temperature less than 36° C. or more than 38° C.; (2) heart rate more than 90 beats per minute; (3) tachypnea with more than 20 breaths per minute or an arterial partial pressure of carbon dioxide less than 32 mm Hg; and (4) white blood cell count less than 4000 cells/mm^3, >12,000 cells/mm^3, or an immature (band) form more than 10%. Postoperative complications were evaluated according to the Clavien-Dindo classification.^33 Grade I required no treatment, grade II required medical therapy, grade Ma required interventions but not general anesthesia, grade Mb required general anesthesia, grade IV represented life-threatening states that required intensive care, and grade V represented death.
Sampled blood was immediately transferred into a chilled glass tube containing disodium ethylenediaminetetraacetic acid for plasma sampling or a separating agent for serum sampling, and the samples were then centrifuged at 4° C. […]

[2] = test system: patients undergoing esophagectomy; assay: Adverse events attributable to ghrelin administration in the phase II study; settings: during the study period; 0.5 μg/kg/h continuous i.v. for 5 days, n=20
Protocol: as §1
In total, 40 enrolled patients were randomized into either the ghrelin group (20 patients) or the placebo group (20 patients). All patients received the planned dose of ghrelin or placebo during the planned period. […]

[3] = test system: patients undergoing esophagectomy; assay: Laboratory tests, nutrition status and hormone assays, preoperative and POD7
Protocol: as §1, §2
Sampled blood was immediately transferred into a chilled glass tube containing disodium ethylenediaminetetraacetic acid for plasma sampling or a separating agent for serum sampling, and the samples were then centrifuged at 4° C. Plasma samples were mixed with a 10% volume of 1 N HCl and stored at −80° C. Serum samples were directly stored at −80° C. Sandwich-type enzyme immunoassay kits were used to measure levels of plasma active ghrelin, des-acyl ghrelin, and serum IL-6 according to the manufacturers' protocols (for ghrelin: Mitsubishi Kagaku Iatron, Inc, Tokyo, Japan; for IL-6: R&D Systems, Minneapolis, Minn.). Total plasma ghrelin levels were calculated as the active ghrelin level plus the des-acyl ghrelin level.^34 An Access 2 kit, a chemiluminescent enzyme immunoassay (Beckman Coulter, Inc, Brea, Calif.), was used to measure serum GH levels.

[4] = test system: patients undergoing esophagectomy; assay: Changes in body weight and body composition (dual-energy X-ray absorptiometry); settings: preoperatively vs POD10
Protocol: Dual-energy X-ray absorptiometry (Hologic QDR-2000; Hologic Inc, Waltham, Mass.) was used to assess total body composition, including lean body weight and fat body weight, of all participants.^35 These measurements were performed preoperatively and 10 days postoperatively with the subject in the supine position.
However, in the postoperative test, rapid turnover proteins used as nutritional markers, such as, transthyretin, transferrin, and retinol binding protein, were more highly retained in the ghrelin group than in the placebo group. This finding is consistent with the findings in previous studies that ghrelin prevented nutritional deterioration. […] We compared changes in weight and body composition between the 2 groups. During the study period, changes in body weight were monitored as a percentage of the weight on admission (preoperation).

[5] = test system: patients undergoing esophagectomy; assay: Time required to attain positive nitrogen balance; settings: ghrelin 0.5 μg/kg/h continuous i.v. for 5 days, n=20
Protocol: as §1

[6] = dual-energy X-ray absorptiometry

SMILES: CCCCCCCC(=O)OC[C@H](NC(=O)[C@H](CO)NC(=O)CN)C(=O)N[C@@H](Cc1ccccc1)C(=O)N[C@@H](CC(C)C)C(=O)N[C@@H](CO)C(=O)N1CCC[C@H]1C(=O)N[C@@H](CCC(=O)O)C(=O)N[C@@H](Cc1cnc[nH]1)C(=O)N[C@@H](CCC(N)=O)C(=O)N[C@@H](CCCNC(=N)N)C(=O)N[C@H](C(=O)N[C@@H](CCC(N)=O)C(=O)N[C@@H](CCC(N)=O)C(=O)N[C@@H](CCCNC(=N)N)C(=O)N[C@@H](CCCCN)C(=O)N[C@@H](CCC(=O)O)C(=O)N[C@@H](CO)C(=O)N[C@@H](CCCCN)C(=O)N[C@@H](CCCCN)C(=O)N1CCC[C@H]1C(=O)N1CCC[C@H]1C(=O)N[C@@H](C)C(=O)N[C@@H](CCCCN)C(=O)N[C@@H](CC(C)C)C(=O)N[C@@H](CCC(N)=O)C(=O)N1CCC[C@H]1C(=O)N[C@@H](CCCNC(=N)N)C(=O)O)C(C)C [ghrelin]
- Total ghrelin ([1]; Postoperative (POD7)): 60.2 ± 34.1 imol/mL
- Total ghrelin ([1]; Preoperative (baseline)): 106.6 ± 76.8 imol/mL
- level at time molar at 2 h ([1]; human, plasma, iv, 0.5 ug/kg/h, 2 hours after the start of injection, 0.5 μg/kg/h continuous i.v. infusion): 0.743 ± 0.191 nM
- level at time molar at 4 h ([1]; human, plasma, iv, 0.5 ug/kg/h, 4 hours after the start of injection, 0.5 μg/kg/h continuous i.v. infusion): 0.711 ± 0.146 nM
- level at time molar at 1 postoperative day ([1]; human, plasma, iv, 0.5 ug/kg/h, POD1, during infusion 0.5 μg/kg/h): 0.749 ± 0.143 nM
- level at time molar at 3 postoperative day ([1]; human, plasma, iv, 0.5 ug/kg/h, POD3, during infusion 0.5 μg/kg/h): 0.737 ± 0.199 nM
- level at time molar at 7 postoperative day ([1]; human, plasma, iv, 0.5 ug/kg/h, POD7, after administration of ghrelin): 0.0602 ± 0.0341 nM
- level at time molar at 10 postoperative day ([1]; human, plasma, iv, 0.5 ug/kg/h, POD10, after administration of ghrelin): 0.063 ± 0.031 nM
- level at time molar ([1]; human, plasma, iv, 0.5 ug/kg/h, before ghrelin administration (baseline), ghrelin group n=20): 0.107 ± 0.0768 nM
- adverse events attributable to ghrelin administration [2]: No adverse events attributable to ghrelin administration were observed
- Alanine aminotransferase ([3]; Postoperative (POD7)): 40.6 ± 24.6 IU/L
- Albumin ([3]; Postoperative (POD7)): 2.99 ± 0.45 g/dL
- Asparate aminotransferase ([3]; Postoperative (POD7)): 34.0 ± 15.9 IU/L
- Blood urea nitrogen ([3]; Postoperative (POD7)): 19.3 ± 6.8 mg/dL
- Choline esterase ([3]; Postoperative (POD7)): 154.1 ± 50.7 IU/L
- Creatinine ([3]; Postoperative (POD7)): 0.77 ± 0.19
- Growth hormone ([3]; Postoperative (POD7)): 1.08 ± 1.16 ng/mL
- Hemoglobin ([3]; Postoperative (POD7)): 10.1 ± 1.3 g/dL
- Leukocytes ([3]; Postoperative (POD7)): 9068 ± 2633 /mm
- Lymphocytes ([3]; Postoperative (POD7)): 1380 ± 495 /mm
- Retinol binding protein ([3]; Postoperative (POD7)): 3.63 ± 1.56 mg/dL
- Total bilirubin ([3]; Postoperative (POD7)): 1.25 ± 0.80 mg/dL
- Total protein ([3]; Postoperative (POD7)): 5.66 ± 0.70 g/dL
- Transferrin ([3]; Postoperative (POD7)): 146.4 ± 35.3 mg/dL
- Transthyretin ([3]; Postoperative (POD7)): 20.1 ± 6.7 mg/dL
- Alanine aminotransferase ([3]; Preoperative (baseline)): 18.3 ± 14.1 IU/L
- Albumin ([3]; Preoperative (baseline)): 3.78 ± 0.50 g/dL
- Asparate aminotransferase ([3]; Preoperative (baseline)): 20.2 ± 7.2 IU/L
- Blood urea nitrogen ([3]; Preoperative (baseline)): 15.1 ± 4.7 mg/dL
- Choline esterase ([3]; Preoperative (baseline)): 263.5 ± 83.8 IU/L
- Creatinine ([3]; Preoperative (baseline)): 0.88 ± 0.21
- Growth hormone ([3]; Preoperative (baseline)): 0.51 ± 0.54 ng/mL
- Hemoglobin ([3]; Preoperative (baseline)): 11.3 ± 1.5 g/dL
- Leukocytes ([3]; Preoperative (baseline)): 5472 ± 1970 /mm
- Lymphocytes ([3]; Preoperative (baseline)): 1644 ± 585 /mm
- Retinol binding protein ([3]; Preoperative (baseline)): 4.86 ± 1.71 mg/dL
- Total bilirubin ([3]; Preoperative (baseline)): 0.58 ± 0.20 mg/dL
- Total protein ([3]; Preoperative (baseline)): 6.44 ± 0.59 g/dL
- Transferrin ([3]; Preoperative (baseline)): 198.1 ± 30.8 mg/dL
- Transthyretin ([3]; Preoperative (baseline)): 28.8 ± 9.1 mg/dL
- percent decrease in total weight [4]: −3.5±2.7%
- percent decrease in body fat weight [4, 6]: −3.2±5.0%
- percent decrease in lean body weight [4, 6]: −4.2%±3.0
- time required to attain positive nitrogen balance [5]: 2.6 ± 1.6 days
